Values quoted from earlier work, collected in patent US10624856B2, “Non-extractable oral solid dosage forms” (Dharma Laboratories LLC, priority 2018, dated 2020).

Tests used:
[1] = in vivo

Compound: O=C1CC[C@@]2(O)[C@H]3Cc4ccc(O)c5c4[C@@]2(CCN3CC2CC2)[C@H]1O5 [Naltrexone]
- Plasma protein binding: 21%

Compound: Oc1ccc2c3c1O[C@H]1[C@H](O)CC[C@@]4(O)[C@@H](C2)N(CC2CC2)CC[C@]314 [6-beta-naltrexol]
- half-life [1]: 16 h

Compound: C=CCN1CC[C@]23c4c5ccc(O)c4O[C@H]2C(=O)CC[C@@]3(O)[C@H]1C5 [Naloxone]
- oral bioavailability (in words) ([1]; po): low
